# Patent publication US10925856B2, “Methods and compositions involving bucindolol for the treatment of atrial fibrillation” (priority 2018, dated 2021)
# How the values were obtained:
# [1] = tested on: NT-proBNP; assay: Plasma NT-proBNP (electrochemiluminescence immunoassay)
# [2] = tested on: plasma norepinephrine; assay: Plasma norepinephrine (HPLC with electrochemical detection); details: for Norepinephrine, ΔWeek 12 Mean ± SEM / Norepinephrine, ΔWeek 12 Median / Norepinephrine, ΔWeek 24 Mean ± SEM / Norepinephrine, ΔWeek 24 Median: change from baseline
# [3] = Europe excluding Hungary (n = 48)
# [4] = change from baseline, Canada (n = 59)
# [5] = change from baseline, Entire Cohort (n = 267)
# [6] = change from baseline, Europe excluding Hungary (n = 48)
# [7] = change from baseline, Hungary (n = 33)
# [8] = change from baseline, U.S. (n = 127)
structure (smiles),measurement,setting,value
"COCCc1ccc(OCC(O)CNC(C)C)cc1 (stereo not shown) [metoprolol, metoprolol succinate, reference compound]","NT-proBNP, Week 4 Mean",[1]; Canada,1715 pg/mL
same,"NT-proBNP, Week 4 Median",[1]; Canada,1067 pg/mL
same,"NT-proBNP, ΔWeek 4 Mean ± SEM",[1]; Canada,-91 pg/mL
same,"NT-proBNP, ΔWeek 4 Median",[1]; Canada,-101 pg/mL
same,"NT-proBNP, Baseline Mean ± SD",[1]; Canada (n = 59),1646 ± 2303 pg/mL
same,"NT-proBNP, Baseline Median",[1]; Canada (n = 59),913 pg/mL
same,"NT-proBNP, Week 12 Mean ± SD",[1]; Canada (n = 59),1338 ± 1504 pg/mL
same,"NT-proBNP, Week 12 Median",[1]; Canada (n = 59),845 pg/mL
same,"NT-proBNP, Week 24 Mean ± SD",[1]; Canada (n = 59),1382 ± 1974 pg/mL
same,"NT-proBNP, Week 24 Median",[1]; Canada (n = 59),623 pg/mL
same,"NT-proBNP, Week 4 Mean",[1]; Entire Cohort,1212 pg/mL
same,"NT-proBNP, Week 4 Median",[1]; Entire Cohort,792 pg/mL
same,"NT-proBNP, ΔWeek 4 Mean ± SEM",[1]; Entire Cohort,-50 pg/mL
same,"NT-proBNP, ΔWeek 4 Median",[1]; Entire Cohort,-35 pg/mL
same,"NT-proBNP, Baseline Median",[1]; Entire Cohort (n = 267),861 pg/mL
same,"NT-proBNP, Week 12 Mean ± SD",[1]; Entire Cohort (n = 267),1134 ± 1197 pg/mL
same,"NT-proBNP, Week 12 Median",[1]; Entire Cohort (n = 267),652 pg/mL
same,"NT-proBNP, Week 24 Mean ± SD",[1]; Entire Cohort (n = 267),1334 ± 1732 pg/mL
same,"NT-proBNP, Week 24 Median",[1]; Entire Cohort (n = 267),661 pg/mL
same,"NT-proBNP, Week 4 Mean",[1]; Europe excluding Hungary,820 pg/mL
same,"NT-proBNP, Week 4 Median",[1]; Europe excluding Hungary,433 pg/mL
same,"NT-proBNP, ΔWeek 4 Mean ± SEM",[1]; Europe excluding Hungary,-117 pg/mL
same,"NT-proBNP, ΔWeek 4 Median",[1]; Europe excluding Hungary,-93 pg/mL
same,"NT-proBNP, Baseline Mean ± SD",[1]; [3],883 ± 880 pg/mL
same,"NT-proBNP, Baseline Median",[1]; [3],521 pg/mL
same,"NT-proBNP, Week 12 Mean ± SD",[1]; [3],867 ± 885 pg/mL
same,"NT-proBNP, Week 12 Median",[1]; [3],526 pg/mL
same,"NT-proBNP, Week 24 Mean ± SD",[1]; [3],1108 ± 962 pg/mL
same,"NT-proBNP, Week 4 Mean",[1]; Hungary,812 pg/mL
same,"NT-proBNP, Week 4 Median",[1]; Hungary,803 pg/mL
same,"NT-proBNP, ΔWeek 4 Mean ± SEM",[1]; Hungary,-11 pg/mL
same,"NT-proBNP, ΔWeek 4 Median",[1]; Hungary,-40 pg/mL
same,"NT-proBNP, Baseline Mean ± SD",[1]; Hungary (n = 33),781 ± 458 pg/mL
same,"NT-proBNP, Baseline Median",[1]; Hungary (n = 33),785 pg/mL
same,"NT-proBNP, Week 12 Mean ± SD",[1]; Hungary (n = 33),864 ± 876 pg/mL
same,"NT-proBNP, Week 12 Median",[1]; Hungary (n = 33),593 pg/mL
same,"NT-proBNP, Week 24 Mean ± SD",[1]; Hungary (n = 33),1150 ± 784 pg/mL
same,"NT-proBNP, Week 24 Median",[1]; Hungary (n = 33),1019 pg/mL
same,"NT-proBNP, Week 4 Mean",[1]; U.S.,1227 pg/mL
same,"NT-proBNP, Week 4 Median",[1]; U.S.,831 pg/mL
same,"NT-proBNP, ΔWeek 4 Mean ± SEM",[1]; U.S.,-14 pg/mL
same,"NT-proBNP, ΔWeek 4 Median",[1]; U.S.,-27 pg/mL
same,"NT-proBNP, Baseline Mean ± SD",[1]; U.S. (n = 127),1499 ± 2033 pg/mL
same,"NT-proBNP, Baseline Median",[1]; U.S. (n = 127),982 pg/mL
same,"NT-proBNP, Week 12 Mean ± SD",[1]; U.S. (n = 127),1224 ± 1240 pg/mL
same,"NT-proBNP, Week 12 Median",[1]; U.S. (n = 127),661 pg/mL
same,"NT-proBNP, Week 24 Mean ± SD",[1]; U.S. (n = 127),1374 ± 1839 pg/mL
same,"NT-proBNP, Week 24 Median",[1]; U.S. (n = 127),547 pg/mL
same,"NT-proBNP, ΔWeek 12 Mean ± SEM",[1]; [4],-482 ± 355 pg/mL
same,"NT-proBNP, ΔWeek 12 Median",[1]; [4],-36 pg/mL
same,"NT-proBNP, ΔWeek 24 Mean ± SEM",[1]; [4],-489 ± 361 pg/mL
same,"NT-proBNP, ΔWeek 24 Median",[1]; [4],-106 pg/mL
same,"NT-proBNP, ΔWeek 12 Mean ± SEM",[1]; [5],-135 ± 124 pg/mL
same,"NT-proBNP, ΔWeek 12 Median",[1]; [5],-50 pg/mL
same,"NT-proBNP, ΔWeek 24 Median",[1]; [5],-100 pg/mL
same,"NT-proBNP, ΔWeek 12 Mean ± SEM",[1]; [6],-70 ± 184 pg/mL
same,"NT-proBNP, ΔWeek 12 Median",[1]; [6],-20 pg/mL
same,"NT-proBNP, ΔWeek 24 Mean ± SEM",[1]; [6],-133 ± 153 pg/mL
same,"NT-proBNP, ΔWeek 24 Median",[1]; [6],-101 pg/mL
same,"NT-proBNP, ΔWeek 12 Mean ± SEM",[1]; [7],+45 ± 190 pg/ml
same,"NT-proBNP, ΔWeek 12 Median",[1]; [7],+75 pg/ml
same,"NT-proBNP, ΔWeek 24 Mean ± SEM",[1]; [7],+201 ± 219 pg/ml
same,"NT-proBNP, ΔWeek 24 Median",[1]; [7],+150 pg/ml
same,"NT-proBNP, ΔWeek 12 Mean ± SEM",[1]; [8],-63 ± 190 pg/mL
same,"NT-proBNP, ΔWeek 12 Median",[1]; [8],-99 pg/mL
same,"NT-proBNP, ΔWeek 24 Mean ± SEM",[1]; [8],-158 ± 258 pg/mL
same,"NT-proBNP, ΔWeek 24 Median",[1]; [8],-135 pg/mL
same,"NT-proBNP, ΔWeek 4 Median","[1]; change from baseline, entire cohort",-35 pg/mL
same,NT-proBNP decrease,"[1]; end of the 24-week follow-up period, U.S.",20%
same,"Plasma norepinephrine, Week 4 Mean",[2]; Canada,613 pg/mL
same,"Plasma norepinephrine, Week 4 Median",[2]; Canada,605 pg/mL
same,"Plasma norepinephrine, change from baseline to Week 4, Mean ±SEM",[2]; Canada,-97 pg/mL
same,"Plasma norepinephrine, change from baseline to Week 4, Median",[2]; Canada,-59 pg/mL
same,"Norepinephrine, Baseline Mean ± SD",[2]; Canada (n = 59),674 ± 429 pg/mL
same,"Norepinephrine, Baseline Median",[2]; Canada (n = 59),541 pg/mL
same,"Norepinephrine, Week 12 Mean ± SD",[2]; Canada (n = 59),577 ± 273 pg/mL
same,"Norepinephrine, Week 12 Median",[2]; Canada (n = 59),563 pg/mL
same,"Norepinephrine, Week 24 Mean ± SD",[2]; Canada (n = 59),722 ± 303 pg/mL
same,"Norepinephrine, Week 24 Median",[2]; Canada (n = 59),690 pg/mL
same,"Change in NE at Week 4, median (Q1, Q3)",[2]; Entire Cohort,"−10 (198,121) pg/ml"
same,"Plasma norepinephrine, Week 4 Mean",[2]; Entire Cohort,617 pg/mL
same,"Plasma norepinephrine, Week 4 Median",[2]; Entire Cohort,570 pg/mL
same,"Plasma norepinephrine, change from baseline to Week 4, Mean ±SEM",[2]; Entire Cohort,36 ± 32 pg/mL
same,"Plasma norepinephrine, change from baseline to Week 4, Median",[2]; Entire Cohort,-10 pg/mL
same,"Norepinephrine, Baseline Mean ± SD",[2]; Entire Cohort (n = 267),664 ± 359 pg/mL
same,"Norepinephrine, Baseline Median",[2]; Entire Cohort (n = 267),590 pg/mL
same,"Norepinephrine, Week 12 Mean ± SD",[2]; Entire Cohort (n = 267),605 ± 266 pg/mL
same,"Norepinephrine, Week 12 Median",[2]; Entire Cohort (n = 267),566 pg/mL
same,"Norepinephrine, Week 24 Mean ± SD",[2]; Entire Cohort (n = 267),690 ± 414 pg/mL
same,"Norepinephrine, Week 24 Median",[2]; Entire Cohort (n = 267),586 pg/mL
same,"Plasma norepinephrine, change from baseline to Week 4, Mean ±SEM","[2]; Entire Cohort, listed as Met",-36 pg/mL
same,"Plasma norepinephrine, Week 4 Mean",[2]; Europe excluding Hungary,676 pg/mL
same,"Plasma norepinephrine, Week 4 Median",[2]; Europe excluding Hungary,612 pg/mL
same,"Plasma norepinephrine, change from baseline to Week 4, Mean ±SEM",[2]; Europe excluding Hungary,-18 pg/mL
same,"Plasma norepinephrine, change from baseline to Week 4, Median",[2]; Europe excluding Hungary,-12 pg/mL
same,"Norepinephrine, Baseline Mean ± SD",[2]; [3],675 ± 250 pg/mL
same,"Norepinephrine, Baseline Median",[2]; [3],592 pg/mL
same,"Norepinephrine, Week 12 Mean ± SD",[2]; [3],640 ± 283 pg/mL
same,"Norepinephrine, Week 12 Median",[2]; [3],614 pg/mL
same,"Norepinephrine, Week 24 Mean ± SD",[2]; [3],904 ± 348 pg/mL
same,"Norepinephrine, Week 24 Median",[2]; [3],924 pg/mL
same,"Plasma norepinephrine, Week 4 Mean",[2]; Hungary,530 pg/mL
same,"Plasma norepinephrine, Week 4 Median",[2]; Hungary,460 pg/mL
same,"Plasma norepinephrine, change from baseline to Week 4, Mean ±SEM",[2]; Hungary,-35 pg/mL
same,"Plasma norepinephrine, change from baseline to Week 4, Median",[2]; Hungary,-70 pg/mL
same,"Norepinephrine, Baseline Mean ± SD",[2]; Hungary (n = 33),627 ± 258 pg/mL
same,"Norepinephrine, Baseline Median",[2]; Hungary (n = 33),571 pg/mL
same,"Norepinephrine, Week 12 Mean ± SD",[2]; Hungary (n = 33),716 ± 308 pg/mL
same,"Norepinephrine, Week 12 Median",[2]; Hungary (n = 33),590 pg/mL
same,"Norepinephrine, Week 24 Mean ± SD",[2]; Hungary (n = 33),716 ± 301 pg/mL
same,"Norepinephrine, Week 24 Median",[2]; Hungary (n = 33),668 pg/mL
same,"Plasma norepinephrine, Week 4 Mean",[2]; U.S.,616 pg/mL
same,"Plasma norepinephrine, Week 4 Median",[2]; U.S.,556 pg/mL
same,"Plasma norepinephrine, change from baseline to Week 4, Mean ±SEM",[2]; U.S.,-18 pg/mL
same,"Plasma norepinephrine, change from baseline to Week 4, Median",[2]; U.S.,+29 pg/ml
same,"Norepinephrine, Baseline Mean ± SD",[2]; U.S. (n = 127),664 ± 386 pg/mL
same,"Norepinephrine, Baseline Median",[2]; U.S. (n = 127),599 pg/mL
same,"Norepinephrine, Week 12 Mean ± SD",[2]; U.S. (n = 127),576 ± 246 pg/mL
same,"Norepinephrine, Week 12 Median",[2]; U.S. (n = 127),560 pg/mL
same,"Norepinephrine, Week 24 Mean ± SD",[2]; U.S. (n = 127),639 ± 472 pg/mL
same,"Norepinephrine, Week 24 Median",[2]; U.S. (n = 127),519 pg/mL
same,Within group NE change,"[2]; Week 4, any of the regions",not associated with a within group NE change
same,"Norepinephrine, ΔWeek 12 Mean ± SEM",[2]; Canada (n = 59),-111 ± 57 pg/mL
same,"Norepinephrine, ΔWeek 12 Median",[2]; Canada (n = 59),-85 pg/mL
same,"Norepinephrine, ΔWeek 24 Mean ± SEM",[2]; Canada (n = 59),18 ± 75 pg/mL
same,"Norepinephrine, ΔWeek 24 Median",[2]; Canada (n = 59),-10 pg/mL
same,"Norepinephrine, ΔWeek 12 Mean ± SEM",[2]; Entire Cohort (n = 267),-64 ± 30 pg/mL
same,"Norepinephrine, ΔWeek 12 Median",[2]; Entire Cohort (n = 267),-57 pg/mL
same,"Norepinephrine, ΔWeek 24 Mean ± SEM",[2]; Entire Cohort (n = 267),2 ± 33 pg/mL
same,"Norepinephrine, ΔWeek 24 Median",[2]; Entire Cohort (n = 267),-24 pg/mL
same,"Norepinephrine, ΔWeek 12 Mean ± SEM",[2]; [3],-52 ± 65 pg/mL
same,"Norepinephrine, ΔWeek 12 Median",[2]; [3],-76 pg/mL
same,"Norepinephrine, ΔWeek 24 Median",[2]; [3],232 pg/mL
same,"Norepinephrine, ΔWeek 12 Mean ± SEM",[2]; Hungary (n = 33),144 ± 89 pg/mL
same,"Norepinephrine, ΔWeek 12 Median",[2]; Hungary (n = 33),37 pg/mL
same,"Norepinephrine, ΔWeek 24 Mean ± SEM",[2]; Hungary (n = 33),148 ± 336 pg/mL
same,"Norepinephrine, ΔWeek 24 Median",[2]; Hungary (n = 33),-42 pg/mL
same,"Norepinephrine, ΔWeek 12 Mean ± SEM",[2]; U.S. (n = 127),-100 ± 43 pg/mL
same,"Norepinephrine, ΔWeek 12 Median",[2]; U.S. (n = 127),-66 pg/mL
same,"Norepinephrine, ΔWeek 24 Mean ± SEM",[2]; U.S. (n = 127),-46 ± 40 pg/mL
same,"Norepinephrine, ΔWeek 24 Median",[2]; U.S. (n = 127),-46 pg/mL
same,Reduction in NE,"[2]; week 12, entire cohort",57 pg/mL
